According to patent US20240058363A1 (Emyria, priority 2020, published 2024):
Marks after values point to notes of the source that are not given here.

Legend:
symptoms of anxiety = test: DASS-21 anxiety score in patients treated with CBD only (clinical data registry); assay type: in vivo, human; conditions: for DASS-21 Anxiety Score, Post 1-month follow-up Mean (Std. dev): mean days of treatment 47 (+/−23)
Excerpt: Detailed demographic information and validated standardised questionnaires were collected as part of routine care. Written informed consent to treatment was obtained from all patients, as well as additional consent to participate in Emyria's clinical data registry, data from participating patients were anonymised, aggregated, and analysed to establish clinical efficacy.
Clinically validated tools were used to monitor patients for management of symptoms, quality of life, physical/emotional functioning, and concomitant medication usage. […] After they commenced on medicinal cannabis treatment they were initially treated with low doses and monitored for safety and efficacy of treatment before dose escalation is considered.
A potentially eligible individual who met any of the following criteria will be excluded from participation if the following criteria is met: • 1. Clinically recorded cannabis drug addiction, or cannabis use disorder including individuals with scores 8 or more on the Cannabis Use Disorder Identification Test (CUDIT). • 2. Untreated cardiovascular disease, arrhythmias (other than well controlled atrial fibrillation), or severe heart failure. • 3. History of suicide attempts or suicidal ideation. • 4. History of psychotic episode, schizophrenia or other psychotic disorders.
Patients were assessed monthly by the clinical team (doctor and nurse) and a visit schedule protocol was followed for each patient. A full medical history was conducted at the initial visit, including a detailed history of the clinical indication (including duration symptoms), comorbidities mental and cardiac health conditions, previous procedures, medications and therapies tried. Patients were reviewed as per the Schedule of Assessments (FIG. 2).
The doctors treating patients prescribed orally-based medicinal cannabis standardised products as per approval under the Therapeutic Goods Administration (TGA) through the Special Access Scheme (SAS) Category B and Authorised Prescriber (AP) scheme. The prescribing doctor will decide which product type including THC/CBD ratio and CBD only, based on TGA guidance documents (ie for pain THC/CBD type is generally prescribed) [see https://www.tga.gov.au/medicinal-cannabis-guidance-documents], but also will factor in patient's circumstances such as driving (then CBD only prescribed).
Doctors reviewed patients after the 14 day (2 week), see the Schedule of Assessments (FIG. 2). Following the 2-week dosing review where a doctor may increase/decrease the dosage or change product type, patients were then seen regularly (generally monthly) as per the Schedule of Assessments (FIG. 2). Patients taking CBD only products were prescribed either oil or capsules.

symptoms of insomnia = test: Insomnia Severity Index (ISI) score in patients treated with CBD only; assay type: in vivo, human; set-up: key to Change in ISI score, Visit 1 coefficient in model with interaction terms / Change in ISI score between Visit 0 and Visit 1, by initial assessment category / Change in ISI score between Visit 0 and Visit 3 (third follow-up): change in Insomnia Severity Index (7-item self-report) score
Method: Insomnia may present as disturbed sleep, inability to get to sleep, inability to stay asleep and/or sleep that leaves the subject tired upon waking. The insomnia may be assessed using the Insomnia Severity Index (ISI) 7-item self-report questionnaire. […] More importantly perhaps, this global measure has been employed in number of recent clinical trials to assess the responses in insomnia to a wide variety of treatments.
Patients were assessed for inclusion/exclusion using the same screening criteria and population criteria collected for evaluation as in Example 1. Dosing regimens were the same as Example 1.
Column (1) first presents results from a pooled specification with a time specific dummy variable capturing the first follow-up visit (i.e., Visit 1) as the sole explanatory variable. […] Notice that the constant term (i.e., the intercept) reflects the average ISI score of 14.145 at baseline.
Column (2) then incorporates patient-fixed effects. Note that when including fixed effects at the person level, the constant term is dropped from the regression, as it is differenced out by the fixed effects estimator—in addition to any other (un)observable time-invariant individual characteristics which may influence ISI scores (such as personality traits or beliefs). As for our coefficient of interest, it continues to emerge as negative and statistically significant. In fact, it remains virtually unchanged from column (1) since the pooled data contains exactly two observations for each patient.
Finally, column (3) introduces interaction terms between the time dummy variable and binary indicators of starting with an ISI score in the ‘subthreshold insomnia’, ‘clinical insomnia (moderate severity)’, or ‘clinical insomnia (severe)’ category at baseline. The reference category here is determined by patients in the ‘no clinically significant insomnia’ category. Consistent with the visuals from FIG. 1, the reduction in insomnia score at the first follow-up is primarily driven by those who start in the ‘subthreshold insomnia’ category or higher at baseline.
Exploring this issue of persistence further, Table 9 presents regression-equation checks. In particular, column (1) replicates the benchmark results showing the change in […] between baseline and the first follow-up visit. Columns (2) and columns (3) then re-estimate the results between baseline and the second follow-up visit, and baseline and the third follow-up visit respectively.

[1] = average treatment window of slightly under 13 days
[2] = mean treatment horizon of 22 days
[3] = mean treatment period of 7 days

**Q.** With `C=C(C)C1CCC(C)=CC1c1c(O)cc(CCCCC)cc1O` (stereo not drawn) [cannabidiol, 2-[3-methyl-6-(1-methylethenyl)-2-cyclohexen-1-yl]-5-pentyl-1,3-benzenediol] as the compound, how does the “DASS-21 Anxiety Score, Post 1-month follow-up Mean (Std. dev)” value (“DASS-21 Anxiety Score … (Std. dev)” for short) (symptoms of anxiety; All (n = 146), initial mean 13.7 (8.7), p 0.000) read?
**A.** The value was 9.1 (6.8).

**Q.** And the “DASS-21 Anxiety Score … (Std. dev)” value (symptoms of anxiety; Mod to extreme (n = 100), initial mean 17.7 (7.5), p 0.000)?
**A.** Its value is 11.0 (7.1).

**Q.** What about the “Decrease in anxiety score” value (symptoms of anxiety; [1]) of the same compound?
**A.** Its value is −6.0.

**Q.** And the “DASS-21 Anxiety Score … (Std. dev)” value (symptoms of anxiety; baseline category Mild 8-9 (n = 13), initial mean 8.0 (0.0), p 0.291)?
**A.** The value was 7.1 (3.0).

**Q.** What about the “DASS-21 Anxiety Score … (Std. dev)” value (symptoms of anxiety; baseline category Moderate 10-14 (n = 50), initial mean 12.1 (1.7), p 0.000) of the same compound?
**A.** The value was 8.8 (5.1).

**Q.** What about the “DASS-21 Anxiety Score … (Std. dev)” value (symptoms of anxiety; baseline category Normal 0-7 (n = 33), initial mean 3.9 (1.7), p 0.667) of the same compound?
**A.** Its value is 4.2 (3.7).

**Q.** And the “DASS-21 Anxiety Score … (Std. dev)” value (symptoms of anxiety; baseline category Severe 15-19 (n = 16), initial mean 17.0 (1.0), p 0.009)?
**A.** Its value is 10.9 (7.9).

**Q.** What about the “Change in anxiety score from initial visit to first follow-up versus dosage (FIG. 6)” value (symptoms of anxiety; dosage amounts between 50-200 mg per day) of the same compound?
**A.** Its value is “correlated with a higher value of change indicating less symptoms of anxiety, stress and/or depression”.

**Q.** And the “Fall in anxiety score” value (symptoms of anxiety; [2])?
**A.** The value was −5.7.

**Q.** What about the “Decline in anxiety score” value (symptoms of anxiety; [3]) of the same compound?
**A.** The value was −10.5.

**Q.** What about the “Mean DASS-21 anxiety score over the first six months (FIG. 14)” value (symptoms of anxiety; patients with subthreshold and clinically significant scores at baseline) of the same compound?
**A.** The value was “significant reduction over the 6-month period”.

**Q.** And the “Persistence of decrease in insomnia severity” value (symptoms of insomnia; after 4 and 6 months (Visits 2 and 3) of CBD only treatment)?
**A.** The value was “decrease in insomnia severity persists”.

**Q.** And the “Decrease in insomnia score” value (symptoms of insomnia; [1])?
**A.** The value was −5.0.

**Q.** What about the “Fall in insomnia score” value (symptoms of insomnia; [2]) of the same compound?
**A.** The value was −4.1.

**Q.** And the “Decline in insomnia score” value (symptoms of insomnia; [3])?
**A.** Its value is −7.2.

**Q.** And the “Change in ISI score between Visit 0 and Visit 3 (third follow-up)” value (symptoms of insomnia; patient fixed effects, N 292, baseline mean 14.145, about 6 months, SE 0.854, p < 0.001)?
**A.** The value was −4.313***.

**Q.** And the “Change in ISI score between Visit 0 and Visit 2 (second follow-up)” value (symptoms of insomnia; patient fixed effects, N 349, baseline mean 14.145, about 4 months, SE 0.581, p < 0.001)?
**A.** The value was −4.141***.

**Q.** And the “Response of ISI score to treatment” value (symptoms of insomnia; patients beginning in the 'no clinically significant insomnia' category)?
**A.** Its value is “do not exhibit any meaningful response”.

**Q.** And the “Mean ISI scores by baseline ISI category, initial versus first follow-up visit (FIG. 10)” value (symptoms of insomnia; patients starting with subthreshold, moderate and severe clinical insomnia, mean 46.9 days between visits)?
**A.** The value was “significantly lower mean ISI scores in the first follow-up visit”.

**Q.** What about the “Average ISI scores over the first six months (FIG. 13)” value (symptoms of insomnia; patients with subthreshold and clinically significant insomnia scores at baseline) of the same compound?
**A.** Its value is “significant reduction over the 6-month period”.

**Q.** What about the “Short-term change in ISI score from baseline to first follow-up (Visit 1 coefficient)” value (symptoms of insomnia; pooled specification, no patient fixed effects, 228 patients, baseline mean 14.145, average 46.9 days, SE 0.393, p < 0.001) of the same compound?
**A.** The value was −3.254***.

**Q.** What about the “Change in ISI score between visits versus cannabidiol dosage” value (symptoms of insomnia; prescribed between approximately 10 mg to 200 mg) of the same compound?
**A.** Its value is “report less insomnia at the first follow-up visit”.

**Q.** And the “Change in ISI score, Visit 1 coefficient in model with interaction terms” value (symptoms of insomnia; reference category 'no clinically significant insomnia' at baseline, patient fixed effects, 228 patients, SE 0.646, not significant)?
**A.** The value was 0.959.

**Q.** What about the “Change in ISI score, Visit 1 × subthreshold insomnia interaction coefficient” value (symptoms of insomnia; relative to 'no clinically significant insomnia', patient fixed effects, 228 patients, SE 0.901, p < 0.001) of the same compound?
**A.** The value was −3.308***.

**Q.** And the “Change in ISI score, Visit 1 × clinical insomnia (moderate severity) interaction coefficient” value (symptoms of insomnia; relative to 'no clinically significant insomnia', patient fixed effects, 228 patients, SE 0.970, p < 0.001)?
**A.** Its value is −6.231***.

**Q.** And the “Change in ISI score, Visit 1 × clinical insomnia (severe) interaction coefficient” value (symptoms of insomnia; relative to 'no clinically significant insomnia', patient fixed effects, 228 patients, SE 1.039, p < 0.001)?
**A.** Its value is −7.122***.

**Q.** And the “Change in ISI score between Visit 0 and Visit 1, by initial assessment category” value (“Change … by initial assessment category” for short) (symptoms of insomnia; subsample Clinical insomnia (moderate severity), 70 patients, baseline mean 17.757, SE 0.726, p < 0.001)?
**A.** Its value is −5.271***.

**Q.** What about the “Change … by initial assessment category” value (symptoms of insomnia; subsample Clinical insomnia (severe), 43 patients, baseline mean 24.256, SE 0.823, p < 0.001) of the same compound?
**A.** The value was −6.163***.

**Q.** What about the “Change … by initial assessment category” value (symptoms of insomnia; subsample No clinically significant insomnia, 49 patients, baseline mean 3.857, SE 0.652, not significant) of the same compound?
**A.** The value was 0.959.

**Q.** And the “Change … by initial assessment category” value (symptoms of insomnia; subsample Subthreshold insomnia, 66 patients, baseline mean 11.364, SE 0.631, p < 0.001)?
**A.** The value was −2.349***.
